In patent US8080522B2, “Polyethlene glycol modifications of thymosin alpha-1” (Institute of Pharmacology and Toxicology Academy of …, priority 2005, dated 2011):
Where two headings read alike, the source gives them in different places. Where no end group is shown, it is not given here.

How the values were obtained:
[1] = Plasma concentration / pharmacokinetics in mouse (competitive ELISA); assay type: in vivo; settings: 300 μg per mouse, injected peritoneally, parameters in 24 h
Experimental: Coating antigen: Dilute Tα1 detection antigen stock solution to a final concentration of 2 μg/mL with coating solution, and add it into the wells of ELISA plate for 0.1 mL per well, and incubate at 4° C. for 5 days. Then wash the ELISA plate 3 times with washing buffer, each 0.2 mL/well and 3 min/time. Add 0.2 mL blocking buffer to each well, incubate for 1.5 hours at 37° C., wash plate 2 times by washing buffer, and spin dried.
Sample preparation: Weight sample accurately, dissolve it in saline to a concentration of 1.5 mg/mL. Administrate 0.2 Ml by injection to each mouse peritoneally. Collect blood sample in 3 min, 20 min, 40 min, 1 h, 2 h, 3 h, 6 h, 8 h, 12 h, and 24 h. Collect serum by centrifuge the blood samples for 5 minutes at 10000 rpm, stored at −20° C. in a freezer. o prepare test sample, […] was added by 0.1 mL 1:1500 rabbit anti-Tα1 serum (final concentration is 1:6000), and 0.2 mL CD-1® mouse serum, and […]. Prepare blank control at the same time. Total volume is 0.4 mL. Incubate for 2 hours at 37° C. To prepare standard sample, Tα1 0.1 mL with different concentrations from 0.0004 to 400 μg/mL was added by 0.1 mL 1:1500 rabbit anti-Tα1 serum (final concentration is 1:6000), and 0.2 mL CD-1® mouse serum. Prepare blank control at the same time. Total volume is 0.4 mL. Incubate for 2 hours at 37° C.
Sample Testing Add the prepared test sample and standard sample to ELISA plate, 0.1 mL/well, reacting for 1 hour in 37° C. chamber. Wash the plates 3 times, spin dryed. Add substrate 0.1 mL/well for 10 minutes. Add 2 mol/L H2SO4 0.05 mL to each well to terminate the reaction. Measure the OD value at 450 nm. Plot the standard curve with the concentration of Tα1 standard sample as abscissa and OD value as vertical coordinate. Calculate the content of test sample according to this standard curve.

[2] = Half-life in liver homogenate (HPLC); assay type: in vitro ADME; settings: 37° C., sample 0.4 mg/mL or 0.8 mg/mL; for half-life: read-out: t1/2 in liver homogenate (converted)
Experimental: Experimental method: Prepare 0.4 mg/mL or 0.8 mg/mL sample aqueous solution in centrifuge tube, adding 50 μL liver homogenate. Then incubate for different time in 37° C. water bath. Terminate the reaction and precipitate liver homogenate protein by heating the mixture in boiling water for 5 minutes. Centrifuge it (10000 rpm) for 10 minutes. Analyze the supernatant by HPLC. The data was statistically analyzed by Origin Prof. 5.0.
HPLC: Column temperature: 25° C.; Flow rate 1.0 mL/min; Detection wavelength: 200 nm; Mobile phase A: 0.1% TFA/H2O; Mobile phase B: 0.1% TFA/70% CH3CN.

spleen cell = test: Interferon-γ production of spleen cells stimulated by Con A (double antibody sandwich ELISA); assay type: cell-based; settings: for Concentration of IFN-γ: Con A 0.5 μg/mL, 24 hours, n = 3; for Enhancement percentage: versus Con A alone
Experimental: Prepare spleen cell suspension in sterile condition. Adjust cell concentration to 5×10^6 cell/mL by adding RPMI-1640 culture with 20% bovine serum. Add 0.5 mL cell suspension, 0.25 mL Con A (final concentration is 0.5 μg/mL) and 0.25 mL samples with different concentrations in 24-well plate; and add RPMI-1640 culture in control wells. Incubate the plates in a 5% CO2 chamber at 37° C. for 24 hours. Centrifuge and collect supernatant, test the content of IFN-γ in supernatant by double antibody sandwich ELISA. The protocol is according to the instruction on ELISA kit.

[3] = test system: T lymphocyte (spleen cell); test: T lymphocyte proliferation stimulated by Con A (3H-TdR incorporation); assay type: cell-based, mouse; settings: for 3H-TdR incorporation (cpm, x ± SD): Con A 0.5 μg/mL, 72 hours, n = 4; for Enhancement percentage: versus Con A alone
Experimental: Sacrifice mouse by draining artery blood, remove spleen in sterile condition, and make it to spleen cell suspension. After red blood cell lysis, wash for 3 times, and stain with Trypan Blue to count the living cells. The amount of living cells should be more than 95%. Dilute the cell concentration to 5×10^6 cell/mL by adding RPMI-1640 culture with 10% bovine serum. Add spleen cell suspension to a sterilized 96-well plate for 100 μL per well. The total amount is 200 μL per well (including 50 μL Con A and 50 μL medicament). Each sample concentration is repeated fro 3-4 wells. Incubate the plate in a 5% CO2 chamber for 72 hours, add 10 μci/mL ^3H-TdR 20 μL per well 16 hours before termination of the incubation, giving rise to a final concentration of 1.0 μci (37.0 KBq)/mL. Collect cells on filter membrane by using Herveste 96 cell harvester, dried in 80° C. oven for 20 minutes or dried in air. Put the dried filter membrane into 1450-423 microBeta sample bag, add scintillation liquid, and measure radioactivity (cpm) in Perkin Elmer MicroBeta Trilux 1450 Scintillation Counter.

[4] = serum, ip, 300 ug/animal, n = 3, read-out: Cmax
[5] = serum, ip, 300 ug/animal, n = 3, read-out: Tmax

With “Ac-CSDAAVDTSSEITTKDLKEKKEVVEEAEN-OH [BMJBT008]” the AUC ([1]; n = 3) was 1210 ng·h/mL, the Cmax [1, 4] was 430 ng/mL and the Tmax [1, 5] was 0.333 h. The half-life [2] was less than 1 h, the “Concentration of IFN-γ” value (spleen cell; Table 1-3, sample 1 μg/mL) was 4323.8 ± 187.0 pg/mL and the Enhancement percentage (spleen cell; Table 1-3, sample 1 μg/mL) was “+41.6%”. For the same substance, the “Concentration of IFN-γ” value (spleen cell; Table 1-3, sample 10 μg/mL) was 3115.0 ± 195.8 pg/mL, the Enhancement percentage (spleen cell; Table 1-3, sample 10 μg/mL) was “+2.0%” and the “Concentration of IFN-γ” value (spleen cell; Table 1-3, sample 100 μg/mL) was 2975.5 ± 182.6 pg/mL. The Enhancement percentage (spleen cell; Table 1-3, sample 100 μg/mL) was −2.6%.
In the case of “Ac-SDAAVDTSSEITTKDLKEKKEVVCEAEN-OH [BMJBT007]”, the AUC ([1]; n = 3) was 17900 ng·h/mL, the Cmax [1, 4] was 5990 ng/mL and the Tmax [1, 5] was 0.333 h. The half-life [2] was 0.5 h.
With “Ac-[Cys^5(mPEG5000-MAL)]Tα1 (Ac-SDAAC(mPEG5000‑maleimide)DTSSEITTKDLKEKKEVVEEAEN; UniProt P06454 2-29, looked up, variant V5C) [BMJB005]” the “t1/2 in liver homogenate” value [2] was 250.0 h.
In the case of “Ac-[Cys^8(mPEG5000-MAL)]Tα1 (Ac-SDAAVDTC(mPEG5000‑maleimide)SEITTKDLKEKKEVVEEAEN; UniProt P06454 2-29, looked up, variant S8C) [BMJB008]”, the “t1/2 in liver homogenate” value [2] was 65.2 h.
In the case of “Ac-[Cys^16(mPEG5000-MAL)]Tα1 (Ac-SDAAVDTSSEITTKDC(mPEG5000‑maleimide)KEKKEVVEEAEN; UniProt P06454 2-29, looked up, variant L16C) [BMJB016]”, the AUC ([1]; n = 3) was 120000 ng·h/mL, the Cmax ([1]; n = 3) was 6289 ng/mL and the Tmax ([1]; n = 3) was 6.000 h. The “3H-TdR incorporation (cpm, x ± SD)” value ([3]; Table 2-1, sample 10 μg/mL) was 21697 ± 3489 cpm, the Enhancement percentage ([3]; Table 2-1, sample 10 μg/mL) was “+60.9%” and the “3H-TdR incorporation (cpm, x ± SD)” value ([3]; Table 2-1, sample 50 μg/mL) was 22584 ± 1463 cpm. For the same substance, the Enhancement percentage ([3]; Table 2-1, sample 50 μg/mL) was “+67.4%”, the “3H-TdR incorporation (cpm, x ± SD)” value ([3]; Table 2-1, sample 100 μg/mL) was 20708 ± 1211 cpm and the Enhancement percentage ([3]; Table 2-1, sample 100 μg/mL) was “+53.5%”. For the same substance, the “Concentration of IFN-γ” value (spleen cell; Table 1-1, sample 1 μg/mL) was 1426.8 ± 36.8 pg/mL, the “Enhancement percentage” value (spleen cell; Table 1-1, sample 1 μg/mL) was “+89.8%” and the “Concentration of IFN-γ” value (spleen cell; Table 1-1, sample 10 μg/mL) was 1295.7 ± 165.9 pg/mL. For the same substance, the “Enhancement percentage” value (spleen cell; Table 1-1, sample 10 μg/mL) was “+72.4%”, the “Concentration of IFN-γ” value (spleen cell; Table 1-1, sample 100 μg/mL) was 455.5 ± 79.3**↓ pg/mL and the “Enhancement percentage” value (spleen cell; Table 1-1, sample 100 μg/mL) was −39.4%.
In the case of “Ac-[Cys^17(mPEG5000-MAL)]Tα1 (Ac-SDAAVDTSSEITTKDLC(mPEG5000‑maleimide)EKKEVVEEAEN; UniProt P06454 2-29, looked up, variant K17C) [BMJB017]”, the AUC ([1]; n = 3) was 83500 ng·h/mL, the Cmax ([1]; n = 3) was 11980 ng/mL and the Tmax ([1]; n = 3) was 1.000 h. The “3H-TdR incorporation (cpm, x ± SD)” value ([3]; Table 2-1, sample 10 μg/mL) was 18919 ± 3507 cpm, the Enhancement percentage ([3]; Table 2-1, sample 10 μg/mL) was “+40.3%” and the “3H-TdR incorporation (cpm, x ± SD)” value ([3]; Table 2-1, sample 50 μg/mL) was 21091 ± 3916 cpm. The Enhancement percentage ([3]; Table 2-1, sample 50 μg/mL) was “+56.4%”, the “3H-TdR incorporation (cpm, x ± SD)” value ([3]; Table 2-1, sample 100 μg/mL) was 16778 ± 2483 cpm and the Enhancement percentage ([3]; Table 2-1, sample 100 μg/mL) was “+24.4%”. For the same substance, the “Concentration of IFN-γ” value (spleen cell; Table 1-1, sample 1 μg/mL) was 1048.9 ± 181.4 pg/mL, the “Enhancement percentage” value (spleen cell; Table 1-1, sample 1 μg/mL) was “+39.5%” and the “Concentration of IFN-γ” value (spleen cell; Table 1-1, sample 10 μg/mL) was 856.4 ± 61.8 pg/mL. For the same substance, the “Enhancement percentage” value (spleen cell; Table 1-1, sample 10 μg/mL) was “+13.9%”, the “Concentration of IFN-γ” value (spleen cell; Table 1-1, sample 100 μg/mL) was 474.7 ± 10.2**↓ pg/mL and the “Enhancement percentage” value (spleen cell; Table 1-1, sample 100 μg/mL) was −36.9%.
“BMJB012: PEG modification of Tα1, listed after BMJBT001 in Tables 1-2 and 2-2 (SDAAVDTSSEITTKDLKEKKEVVEEAEN; not fully specified; ends and bridges not checked; also: PEG conjugate, site not given here; UniProt P06454 2-29, looked up)” gave an AUC ([1]; n = 3) of 8150 ng·h/mL, a Cmax ([1]; n = 3) of 348 ng/mL and a Tmax ([1]; n = 3) of 12.000 h. The “3H-TdR incorporation (cpm, x ± SD)” value ([3]; Table 2-2, sample 10 μg/mL) was 22772 ± 3222 cpm, the Enhancement percentage ([3]; Table 2-2, sample 10 μg/mL) was “+95.6%” and the “3H-TdR incorporation (cpm, x ± SD)” value ([3]; Table 2-2, sample 50 μg/mL) was 24066 ± 4004 cpm. The Enhancement percentage ([3]; Table 2-2, sample 50 μg/mL) was “+106.7%”, the “3H-TdR incorporation (cpm, x ± SD)” value ([3]; Table 2-2, sample 100 μg/mL) was 25176 ± 3656 cpm and the Enhancement percentage ([3]; Table 2-2, sample 100 μg/mL) was “+116.3%”. For the same substance, the “Concentration of IFN-γ” value (spleen cell; Table 1-2, sample 1 μg/mL) was 4224.7 ± 183.1 pg/mL, the “Enhancement percentage” value (spleen cell; Table 1-2, sample 1 μg/mL) was “+29.7%” and the “Concentration of IFN-γ” value (spleen cell; Table 1-2, sample 10 μg/mL) was 3115.3 ± 377.1 pg/mL. The “Enhancement percentage” value (spleen cell; Table 1-2, sample 10 μg/mL) was −4.4%, the “Concentration of IFN-γ” value (spleen cell; Table 1-2, sample 100 μg/mL) was 3277.7 ± 181.0 pg/mL and the “Enhancement percentage” value (spleen cell; Table 1-2, sample 100 μg/mL) was “+0.6%”.
In the case of “BMJB015: PEG modification of Tα1, listed after BMJBT004 in Table 1-2 (SDAAVDTSSEITTKDLKEKKEVVEEAEN; ends and bridges not checked; also: PEG conjugate, site not given here; UniProt P06454 2-29, looked up)”, the AUC ([1]; n = 3) was 106000 ng·h/mL, the Cmax ([1]; n = 3) was 5082 ng/mL and the Tmax ([1]; n = 3) was 3.000 h. The “Concentration of IFN-γ” value (spleen cell; Table 1-2, sample 1 μg/mL) was 3908.2 ± 147.2 pg/mL, the “Enhancement percentage” value (spleen cell; Table 1-2, sample 1 μg/mL) was “+20.0%” and the “Concentration of IFN-γ” value (spleen cell; Table 1-2, sample 10 μg/mL) was 3962.9 ± 137.6 pg/mL. For the same substance, the “Enhancement percentage” value (spleen cell; Table 1-2, sample 10 μg/mL) was “+21.6%”, the “Concentration of IFN-γ” value (spleen cell; Table 1-2, sample 100 μg/mL) was 3526.2 ± 68.0 pg/mL and the “Enhancement percentage” value (spleen cell; Table 1-2, sample 100 μg/mL) was “+8.2%”.
“BMJB020: PEG modification of Tα1 (SDAAVDTSSEITTKDLKEKKEVVEEAEN; ends and bridges not checked; also: PEG conjugate, site not given here; UniProt P06454 2-29, looked up)” showed an AUC ([1]; n = 3) of 4080 ng·h/mL, a Cmax ([1]; n = 3) of 172 ng/mL and a Tmax ([1]; n = 3) of 12.000 h. The “Concentration of IFN-γ” value (spleen cell; Table 1-3, sample 1 μg/mL) was 3998.3 ± 157.7 pg/mL, the Enhancement percentage (spleen cell; Table 1-3, sample 1 μg/mL) was “+30.9%” and the “Concentration of IFN-γ” value (spleen cell; Table 1-3, sample 10 μg/mL) was 2654.0 ± 211.1 pg/mL. The Enhancement percentage (spleen cell; Table 1-3, sample 10 μg/mL) was −13.1%, the “Concentration of IFN-γ” value (spleen cell; Table 1-3, sample 100 μg/mL) was 3135.8 ± 195.4 pg/mL and the Enhancement percentage (spleen cell; Table 1-3, sample 100 μg/mL) was “+2.7%”.
